# According to ChEMBL document CHEMBL6177994 (J Med Chem, 2025):
# Activity calls are given as the source filed them. The calls are words filed in the database; no cut-off is given here.
# Assays:
# [1] = system: Protein cereblon/GTPase KRas (Homo sapiens), P01116+Q96SW2 [G12D]; test: PROTAC activity at CRBN/KRAS G12D mutant in human ASPC1 cells assessed as induction of KRAS G12D mutant degradation at 1 nM measured after 12 hrs by immunoblot analysis relative to control; assay type: cell-based
# [2] = system: Protein cereblon/GTPase KRas (Homo sapiens), P01116+Q96SW2 [G12D]; test: PROTAC activity at CRBN/KRAS G12D mutant in human ASPC1 cells assessed as induction of KRAS G12D mutant degradation 0.01 to 100 nM measured after 24 hrs by immunoblot analysis relative to control; assay type: cell-based; settings: dose 0.01-100 nM
# [3] = Inhibition of ERK phosphorylation in human ASPC1 cells harbouring KRAS G12D mutant measured after 24 hrs; assay type: cell-based; settings: ASPC1, 24 h
# [4] = Inhibition of ERK phosphorylation in human PK-59 cells harbouring KRAS G12D mutant measured after 24 hrs; assay type: cell-based; settings: PK-59, 24 h
# [5] = molecular target: Protein cereblon/GTPase NRas (Homo sapiens) (UniProt P01111+Q96SW2); test: PROTAC activity at CRBN/NRAS in human MKN-1 cells assessed as induction of […] 0.061 to 1000 nM measured after 24 hrs by immunoblot analysis; assay type: cell-based; settings: dose 0.061-1000 nM
# Chain of Protein cereblon/GTPase NRas (Homo sapiens) (P01111 whole entry, looked up): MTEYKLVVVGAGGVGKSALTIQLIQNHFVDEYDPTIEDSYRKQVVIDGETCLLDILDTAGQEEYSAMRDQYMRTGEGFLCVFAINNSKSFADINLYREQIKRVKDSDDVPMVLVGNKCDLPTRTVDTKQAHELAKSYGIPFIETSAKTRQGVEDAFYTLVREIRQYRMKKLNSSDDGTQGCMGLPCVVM
# Chain of Protein cereblon/GTPase NRas (Homo sapiens) (Q96SW2 whole entry, looked up): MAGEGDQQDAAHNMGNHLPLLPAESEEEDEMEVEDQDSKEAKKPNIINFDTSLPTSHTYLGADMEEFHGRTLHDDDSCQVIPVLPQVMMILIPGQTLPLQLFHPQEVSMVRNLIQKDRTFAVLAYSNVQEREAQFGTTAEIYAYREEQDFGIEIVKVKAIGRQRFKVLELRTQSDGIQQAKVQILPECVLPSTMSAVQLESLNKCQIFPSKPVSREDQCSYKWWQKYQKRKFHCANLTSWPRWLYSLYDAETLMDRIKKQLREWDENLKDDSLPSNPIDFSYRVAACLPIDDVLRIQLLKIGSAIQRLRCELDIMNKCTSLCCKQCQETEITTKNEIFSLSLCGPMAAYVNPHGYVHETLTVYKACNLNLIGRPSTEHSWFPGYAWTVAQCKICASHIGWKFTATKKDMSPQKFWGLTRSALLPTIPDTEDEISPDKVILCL
# ASPC1 [6] = test: Antiproliferative activity against human ASPC1 cells harbouring KRAS G12D mutant assessed as inhibition of cell growth measured after 72 hrs by Cell titer glo method; assay type: functional, cell-based; settings: ASPC1, 72 h
# ASPC1 [7] = test: Potency index , ratio of MRTX1133 IC50 to test compound IC50 for antiproliferative activity against human ASPC1 cells assessed as inhibition of cell growth measured after 72 hrs by Cell titer glo method; assay type: functional
# MKN-1 = test: Antiproliferative activity against human MKN-1 cells harbouring wild type KRAS assessed as inhibition of cell growth measured after 72 hrs by Cell titer glo method; assay type: functional, cell-based
# A-427 = test: Antiproliferative activity against human A-427 cells harbouring KRAS G12D mutant assessed as inhibition of cell growth measured after 72 hrs by Cell titer glo method; assay type: functional, cell-based
# SNU-407 [8] = test: Antiproliferative activity against human SNU-407 cells harbouring KRAS G12D mutant assessed as inhibition of cell growth measured after 72 hrs by Cell titer glo method; assay type: functional, cell-based
# HPAC = test: Antiproliferative activity against human HPAC cells harbouring KRAS G12D mutant assessed as inhibition of cell growth measured after 72 hrs by Cell titer glo method; assay type: functional, cell-based
# Panc 04.03 = test: Antiproliferative activity against human Panc 04.03 cells harbouring KRAS G12D mutant assessed as inhibition of cell growth measured after 72 hrs by Cell titer glo method; assay type: functional, cell-based
# HCC1588 = test: Antiproliferative activity against human HCC1588 cells harbouring KRAS G12D mutant assessed as inhibition of cell growth measured after 72 hrs by Cell titer glo method; assay type: functional, cell-based
# [9] = system: Protein cereblon/GTPase KRas (Homo sapiens), P01116+Q96SW2 [G12D]; test: PROTAC activity at CRBN/KRAS G12D mutant in human ASPC1 cells assessed as induction of KRAS G12D mutant degradation at 5 nM preincubated with MRTX1133 followed by compound addition and measured after 24 hrs by Western blot analysis; assay type: cell-based
# [10] = Inhibition of Raf (unknown origin)/GTP loaded KRas G12D mutant interaction preincubated for 15 mins followed by anti-tag1-eu3 and Tag2-XL665 antibody addition and measured for 120 mins by HTRF method; set-up: species or system Homo sapiens
# [11] = Antitumor activity against human PK-59 cells xenografted in female Balb/c nude mouse model assessed as tumor growth inhibition at 3 mg/kg, iv QW measured after 28 days relative to control; assay type: functional; settings: PK-59, 672 h, time 28 day, read-out: TGI
# [12] = Toxicity in female Balb/c nude mouse xenografted with human GP2d cells assessed as change in body weight at 1 to 10 mg/kg, iv QW measured after 28 days; assay type: organism-based; settings: in vivo, 672 h, dose 1-10 mg/kg, time 28 day
# [13] = Toxicity in female Balb/c nude mouse xenografted with human GP2d cells assessed as drug tolerance at 1 to 10 mg/kg, iv QW measured after 28 days; assay type: organism-based; settings: in vivo, 672 h, dose 1-10 mg/kg, time 28 day
# [14] = Toxicity in female Balb/c nude mouse xenografted with human GP2d cells assessed as drug tolerance at 1 to 10 mg/kg, iv Q2W measured after 28 days; assay type: organism-based; settings: in vivo, 672 h, dose 1-10 mg/kg, time 28 day
# SNU-407 [15] = test: Antitumor activity against human SNU-407 cells harbouring KRAS G12D mutant xenografted in female Balb/c nude mouse model assessed as tumor regression at 1 to 10 mg/kg, iv QW administered weekly and measured after 28 days; assay type: functional, organism-based; settings: dose 1-10 mg/kg, time 28.0 day
# CCRF-CEM = test: Antitumor activity against human CCRF-CEM cells harbouring KRAS G12D mutant xenografted in female Balb/c nude mouse model assessed as tumor regression at 1 to 10 mg/kg, iv QW administered weekly and measured after 28 days; assay type: functional, organism-based; settings: dose 1-10 mg/kg, time 28.0 day
# [16] = Drug concentration in male Balb/c nude mouse plasma xenografted with human PK-59 cells at 10 mg/kg, iv administered as single dose measured after 6 hrs by LC-MS/MS analysis; assay type: ADME, organism-based
# [17] = system: Protein cereblon/GTPase KRas (Homo sapiens), P01116+Q96SW2 [G12D]; test: In vivo PROTAC activity at CRBN/KRAS G12D mutant in male Balb/c nude mouse xenografted with human GP2d cells assessed as inhibition of DUSP4 level at 10 mg/kg, iv measured after 7 days; assay type: functional, organism-based; settings: time 7.0 day
# [18] = Drug concentration in male Balb/c nude mouse tumor xenografted with human PK-59 cells at 10 mg/kg, iv administered as single dose measured after 6 hrs by LC-MS/MS analysis; assay type: ADME, organism-based, Neoplasm; settings: read-out: Ct
# [19] = Stability in monkey plasma assessed as half life at 1 uM measured up to 120 mins by LC-MS/MS analysis; assay type: ADME, cell-free, Macaca mulatta; settings: rhesus monkey
# [20] = Metabolic stability in monkey liver microsomes assessed as half life at 1 uM preincubated for 3 mins with NADPH and measured up to 60 mins by LC-MS/MS analysis; assay type: ADME, Macaca mulatta, Microsome; settings: rhesus monkey, time < 63 min
# [21] = Metabolic stability in mouse liver microsomes assessed as intrinsic clearance at 1 uM preincubated for 3 mins with NADPH and measured up to 60 mins by LC-MS/MS analysis; assay type: ADME, Microsome; settings: time < 63 min, read-out: CLH
# [22] = Metabolic stability in monkey liver microsomes assessed as intrinsic clearance at 1 uM preincubated for 3 mins with NADPH and measured up to 60 mins by LC-MS/MS analysis; assay type: ADME, Macaca mulatta, Microsome; settings: rhesus monkey, time < 63 min, read-out: CLH
# Cytochrome P450 2B6 = Cytochrome P450 2B6 (Homo sapiens, UniProt P20813); test: Inhibition of CYP2B6 in human liver microsomes using bupropion as substrate at 10 uM incubated for 20 mins in presence of NADPH by LC/MS analysis; assay type: ADME, Microsome
# Chain of Cytochrome P450 2B6 (P20813 whole entry): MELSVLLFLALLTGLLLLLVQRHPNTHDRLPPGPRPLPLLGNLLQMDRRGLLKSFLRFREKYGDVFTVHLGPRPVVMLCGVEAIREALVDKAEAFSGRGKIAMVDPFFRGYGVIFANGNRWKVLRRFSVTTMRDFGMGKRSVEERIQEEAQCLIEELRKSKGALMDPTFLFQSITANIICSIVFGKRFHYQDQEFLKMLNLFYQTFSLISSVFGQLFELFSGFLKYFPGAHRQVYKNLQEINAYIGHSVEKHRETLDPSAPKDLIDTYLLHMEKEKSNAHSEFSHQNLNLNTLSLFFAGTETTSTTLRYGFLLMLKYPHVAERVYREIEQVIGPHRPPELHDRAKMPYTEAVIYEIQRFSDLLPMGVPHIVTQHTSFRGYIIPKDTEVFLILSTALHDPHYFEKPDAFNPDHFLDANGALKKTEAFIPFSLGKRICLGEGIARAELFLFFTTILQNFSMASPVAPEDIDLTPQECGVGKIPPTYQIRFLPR
# Cytochrome P450 3A4 [23] = molecular target: T1, Cytochrome P450 3A4 (Homo sapiens, UniProt P08684); test: Inhibition of CYP3A4 in human liver microsomes using midazolam as substrate at 10 uM incubated for 15 mins in presence of NADPH by LC/MS analysis; assay type: ADME, Microsome; settings: 0.25 h
# T1 sequence (P08684 whole entry): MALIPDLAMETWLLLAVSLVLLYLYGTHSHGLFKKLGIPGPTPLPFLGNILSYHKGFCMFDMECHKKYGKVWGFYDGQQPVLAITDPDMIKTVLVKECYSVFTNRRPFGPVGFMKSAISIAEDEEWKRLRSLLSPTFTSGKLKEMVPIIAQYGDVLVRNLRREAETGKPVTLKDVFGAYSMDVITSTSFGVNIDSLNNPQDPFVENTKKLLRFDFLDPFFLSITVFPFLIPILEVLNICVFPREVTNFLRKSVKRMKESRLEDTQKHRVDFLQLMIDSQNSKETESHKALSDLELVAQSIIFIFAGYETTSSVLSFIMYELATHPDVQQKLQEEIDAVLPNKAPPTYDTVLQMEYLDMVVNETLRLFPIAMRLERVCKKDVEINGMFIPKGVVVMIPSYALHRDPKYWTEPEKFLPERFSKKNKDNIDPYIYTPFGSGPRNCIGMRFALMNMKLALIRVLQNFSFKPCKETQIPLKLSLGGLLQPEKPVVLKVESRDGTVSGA
# Cytochrome P450 3A4 [24] = molecular target: T1, Cytochrome P450 3A4; test: Inhibition of CYP3A4 in human liver microsomes using testosterone as substrate at 10 uM incubated for 15 mins in presence of NADPH by LC/MS analysis; assay type: ADME, Microsome; settings: 0.25 h
# Chain of Protein cereblon/GTPase KRas (Homo sapiens), P01116+Q96SW2 [G12D] (P01116 whole entry G12D): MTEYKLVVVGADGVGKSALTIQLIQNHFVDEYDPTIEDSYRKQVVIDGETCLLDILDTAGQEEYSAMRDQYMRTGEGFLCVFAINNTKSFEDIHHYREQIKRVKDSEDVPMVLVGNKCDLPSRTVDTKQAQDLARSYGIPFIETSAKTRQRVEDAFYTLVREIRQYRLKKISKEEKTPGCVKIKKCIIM
# Chain of Protein cereblon/GTPase KRas (Homo sapiens), P01116+Q96SW2 [G12D] (Q96SW2 whole entry partner): as the sequence (Q96SW2 whole entry, looked up) above
structure (smiles),measurement,setting,value
C#Cc1c(F)ccc2cc(O)cc(-c3ncc4c(N5CC6CCC(C5)N6)nc(OCC5(CN6CCC7(CC6)CC(N6CCC(c8cc9c(cc8F)c(N8CCC(=O)NC8=O)nn9C)CC6)C7)CC5)nc4c3F)c12,Activity,[1],70%
same,Emax,[2],89%
same,IC50,[3],2.5 nM
same,IC50,[4],2.7 nM
same,Activity,[5],inactive
same,IC50,ASPC1 [6],4.19 nM
same,Ratio IC50,ASPC1 [7],>10
same,Activity,MKN-1,Weak_effect; Compound Showed Weaker Potency In Antiproliferative Activity Compared To Mrtx1133
same,Activity,A-427,Active; Compound Showed Stronger Antiproliferative Activity Compared To Mrtx1133
same,Activity,SNU-407 [8],Active; Compound Showed Stronger Antiproliferative Activity Compared To Mrtx1133
same,Activity,HPAC,Active; Compound Showed Stronger Antiproliferative Activity Compared To Mrtx1133
same,Activity,Panc 04.03,Active; Compound Showed Stronger Antiproliferative Activity Compared To Mrtx1133
same,Activity,HCC1588,Active; Compound Showed Stronger Antiproliferative Activity Compared To Mrtx1133
same,Activity,[9],Active
same,IC50,[10],3.23 nM
same,inhibition in vivo at 3 mg/kg,[11],42.9%
same,Activity,[12],Non-toxic
same,Activity,[13],Non-toxic
same,Activity,[14],Non-toxic
same,Activity,SNU-407 [15],Weak_effect
same,Activity,CCRF-CEM,Weak_effect
same,concentration at 6 h,[16],270 ng/mL
same,Activity,[17],Active
same,concentration at 6 h,[18],1040 ng/g
same,half-life at 1 µM,[19],12.8 h
same,half-life at 1 µM,[20],7.22 h
same,CLint scaled at 1 µM,[21],12.7 mL/min/kg
same,CLint scaled at 1 µM,[22],4.3 mL/min/kg
same,inhibition (INH),Cytochrome P450 2B6,Not_active
same,inhibition (INH),Cytochrome P450 3A4 [23],Not_active
same,inhibition (INH),Cytochrome P450 3A4 [24],Not_active
